Common to all, as to conditions: time 5.0 day
In assay [1] the test system is Mycobacterium tuberculosis H37Rv. Put plainly: Inhibition of MmA1 in Mycobacterium tuberculosis H37Rv assessed as reduction in bacterial growth incubated for 5 days by MABA assay. A general note: The colour change of resazurin is a common sign of viable cells or microbes.
For assay [2] the test system is unchanged. Put plainly: Potency index, ratio of ciprofloxacin MIC to test compound MIC for Inhibition of MmA1-mediated antitubercular activity against Mycobacterium tuberculosis H37Rv incubated for 5 days by MABA assay.
Assay [3] shares this test system. Put plainly: Potency index, ratio of pyrazinamide MIC to test compound MIC for Inhibition of MmA1-mediated antitubercular activity against Mycobacterium tuberculosis H37Rv incubated for 5 days by MABA assay.
Assay [4] shares this test system. Kind of assay: Potency index, ratio of streptomycin MIC to test compound MIC for Inhibition of MmA1-mediated antitubercular activity against Mycobacterium tuberculosis H37Rv incubated for 5 days by MABA assay.

≈ marks a conversion by molar mass, not a printed value.

The record followed here is ChEMBL document CHEMBL4665851, “Design, synthesis, antimycobacterial activity and molecular docking studies of novel 3- (N-substituted glycinamido) benzoic acid analogues as anti tubercular agents” (Bioorg Med Chem Lett, 2020).

As for `NC(=O)c1cnccn1`, the MIC in assay [1] came to 3.12 µg/mL (≈ 25.3 µM). Same read-out and setting: in the case of `O=C(CNc1ccc(Br)cc1)Nc1cccc(C(=O)O)c1` it was 3.12 µg/mL (≈ 8.94 µM).

For the compound `O=C(CN1CCOCC1)Nc1cccc(C(=O)Nc2ccc3[nH]cnc(=O)c3c2)c1`, the MIC in assay [1] came out at 100 µg/mL (≈ 245 µM). As for `O=C(CN1CCN(c2ccccc2)CC1)Nc1cccc(C(=O)O)c1`, the Ratio in assay [2], in assay [3] and in assay [4] was above 2 throughout. Also, in assay [1], the MIC is 1.6 µg/mL (≈ 4.71 µM). On to `Cc1ccc(NCC(=O)Nc2cccc(C(=O)O)c2)cc1`, for which the MIC in assay [1] was 6.25 µg/mL (≈ 22 µM). The same measure, in the same setting: under `O=C(CNc1ccccn1)Nc1cccc(C(=O)O)c1` stands 12.5 µg/mL (≈ 46.1 µM). In the case of `O=C(O)c1cn(C2CC2)c2cc(N3CCNCC3)c(F)cc2c1=O`, the MIC in assay [1] came out at 3.12 µg/mL (≈ 9.42 µM). Still for that read-out and setting: under `O=C(CNc1ccc(Cl)cc1)Nc1cccc(C(=O)O)c1` stands 6.25 µg/mL (≈ 20.5 µM); under `O=C(Cn1ccnc1)Nc1cccc(C(=O)O)c1`, 12.5 µg/mL (≈ 51 µM). For `CN1CCN(CC(=O)Nc2cccc(C(=O)O)c2)CC1`, the Ratio in assay [2], in assay [3] and in assay [4] was above 2 each time. Besides, in assay [1], the MIC stood at 1.6 µg/mL (≈ 5.77 µM). For the compound `O=C(CN1CCCCC1)Nc1cccc(C(=O)O)c1`, the Ratio in assay [2], in assay [3] and in assay [4] was above 2 each time. Moreover, the MIC in assay [1] was found to be 1.6 µg/mL (≈ 6.1 µM). Take `O=C(CN1CCN(Cc2ccccc2)CC1)Nc1cccc(C(=O)O)c1`: the MIC in assay [1] worked out at 3.12 µg/mL (≈ 8.83 µM). On the same count and under the same terms, under `CCN(CC)CC(=O)Nc1cccc(C(=O)O)c1` stands 3.12 µg/mL (≈ 12.5 µM). As for `O=C(CN1CCOCC1)Nc1cccc(C(=O)O)c1`, in assay [1], the MIC is 25 µg/mL (≈ 94.6 µM). The same measure, in the same setting: under `CN[C@@H]1[C@H](O[C@H]2[C@H](O[C@H]3[C@H](O)[C@@H](O)[C@H](N=C(N)N)[C@@H](O)[C@@H]3N=C(N)N)O[C@@H](C)[C@]2(O)C=O)O[C@@H](CO)[C@H](O)[C@H]1O` stands 6.25 µg/mL (≈ 10.7 µM).

As for `O=C(CN1CCCC1)Nc1cccc(C(=O)O)c1`, the Ratio in assay [2], in assay [3] and in assay [4] was above 2 in each case. Further, the MIC in assay [1] came out at 1.6 µg/mL (≈ 6.44 µM). `O=C(CNc1ccccc1)Nc1cccc(C(=O)O)c1`: the MIC in assay [1] worked out at 6.25 µg/mL (≈ 23.1 µM). For `O=C(CNc1ccc(F)cc1F)Nc1cccc(C(=O)O)c1`, the Ratio in assay [2], in assay [3] and in assay [4] was above 2 in each case. For the same compound, the MIC in assay [1] was 1.6 µg/mL (≈ 5.22 µM).
